Laboratory results from ChEMBL document CHEMBL4507294, “Data for DCP probe MSD-CYP11B2” (2021).

How the values were obtained:
[1] = biological target: Serine/threonine-protein kinase MAK (Homo sapiens) (UniProt P20794); conditions: Compound concentration 1000.0 nM
[2] = biological target: 1-phosphatidylinositol 3-phosphate 5-kinase (Homo sapiens) (UniProt Q9Y2I7); conditions: Compound concentration 1000.0 nM
[3] = biological target: Myotonin-protein kinase (Homo sapiens) (UniProt Q09013); conditions: Compound concentration 1000.0 nM
[4] = biological target: 5-hydroxytryptamine receptor 2B (Homo sapiens, UniProt P41595); assay: GPCRScan assay: inhibition of 5-HT2B; set-up: radioligand conc. used [nm] 1.0 – 2.0, parental cells stable HEK
[5] = biological target: Phosphatidylinositol 4,5-bisphosphate 3-kinase catalytic subunit alpha isoform (Homo sapiens) (UniProt P42336); conditions: Compound concentration 1000.0 nM
[6] = tested on: Receptor-type tyrosine-protein kinase FLT3 (Homo sapiens), P36888 [N841I]; conditions: Compound concentration 1000.0 nM
[7] = tested on: Receptor-type tyrosine-protein kinase FLT3 (Homo sapiens), P36888 [D835H]; conditions: Compound concentration 1000.0 nM
[8] = biological target: Aurora kinase B (Homo sapiens) (UniProt Q96GD4); conditions: Compound concentration 1000.0 nM
[9] = biological target: Serine/threonine-protein kinase BRSK2 (Homo sapiens) (UniProt Q8IWQ3); conditions: Compound concentration 1000.0 nM
[10] = biological target: Tyrosine-protein kinase Fer (Homo sapiens) (UniProt P16591); conditions: Compound concentration 1000.0 nM
[11] = tested on: Phosphatidylinositol 4,5-bisphosphate 3-kinase catalytic subunit alpha isoform (Homo sapiens), P42336 [E545K]; conditions: Compound concentration 1000.0 nM
[12] = biological target: Phosphorylase b kinase gamma catalytic chain, skeletal muscle/heart isoform (Homo sapiens) (UniProt Q16816); conditions: Compound concentration 1000.0 nM
Sequence of Phosphorylase b kinase gamma catalytic chain, skeletal muscle/heart isoform (Homo sapiens) (Q16816 whole entry, looked up, canonical isoform): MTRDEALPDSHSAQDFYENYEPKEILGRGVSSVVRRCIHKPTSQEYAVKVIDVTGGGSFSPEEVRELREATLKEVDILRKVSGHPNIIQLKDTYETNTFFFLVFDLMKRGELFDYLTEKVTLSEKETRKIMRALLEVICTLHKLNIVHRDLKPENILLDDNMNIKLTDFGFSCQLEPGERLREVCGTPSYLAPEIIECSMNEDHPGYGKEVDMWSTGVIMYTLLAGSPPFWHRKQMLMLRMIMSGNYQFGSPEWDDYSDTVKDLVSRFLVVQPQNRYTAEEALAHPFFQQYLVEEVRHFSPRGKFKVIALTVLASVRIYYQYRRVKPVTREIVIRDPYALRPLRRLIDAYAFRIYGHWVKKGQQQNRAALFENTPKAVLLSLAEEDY

[13] = biological target: Tyrosine-protein kinase ITK/TSK (Homo sapiens) (UniProt Q08881); conditions: Compound concentration 1000.0 nM
[14] = biological target: Hepatocyte growth factor receptor (Homo sapiens) (UniProt P08581); conditions: Compound concentration 1000.0 nM
[15] = biological target: Bone morphogenetic protein receptor type-1B (Homo sapiens) (UniProt O00238); conditions: Compound concentration 1000.0 nM
[16] = biological target: Serine/threonine-protein kinase MARK1 (Homo sapiens) (UniProt Q9P0L2); conditions: Compound concentration 1000.0 nM
Sequence of Serine/threonine-protein kinase MARK1 (Homo sapiens) (Q9P0L2 whole entry, looked up): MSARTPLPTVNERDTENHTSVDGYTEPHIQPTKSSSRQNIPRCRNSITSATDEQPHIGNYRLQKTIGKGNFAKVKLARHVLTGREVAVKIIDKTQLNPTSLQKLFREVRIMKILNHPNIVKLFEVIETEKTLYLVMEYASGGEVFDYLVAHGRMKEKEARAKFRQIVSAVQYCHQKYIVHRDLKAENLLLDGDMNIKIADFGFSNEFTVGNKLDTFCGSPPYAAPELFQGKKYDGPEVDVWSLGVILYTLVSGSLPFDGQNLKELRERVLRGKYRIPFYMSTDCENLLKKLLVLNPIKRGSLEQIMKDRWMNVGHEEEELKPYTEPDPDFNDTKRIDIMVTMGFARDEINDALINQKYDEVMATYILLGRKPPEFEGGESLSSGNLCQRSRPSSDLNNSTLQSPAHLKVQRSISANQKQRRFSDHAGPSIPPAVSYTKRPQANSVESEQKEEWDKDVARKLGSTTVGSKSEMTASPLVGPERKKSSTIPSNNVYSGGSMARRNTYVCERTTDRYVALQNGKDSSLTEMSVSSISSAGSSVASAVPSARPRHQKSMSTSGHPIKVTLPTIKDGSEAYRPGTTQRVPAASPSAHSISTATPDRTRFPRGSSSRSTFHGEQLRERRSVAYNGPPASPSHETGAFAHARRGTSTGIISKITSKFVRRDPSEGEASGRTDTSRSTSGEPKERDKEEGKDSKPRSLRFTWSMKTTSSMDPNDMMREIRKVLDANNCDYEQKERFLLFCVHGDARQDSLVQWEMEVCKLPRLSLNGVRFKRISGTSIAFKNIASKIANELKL

[17] = biological target: Serine/threonine-protein kinase ULK2 (Homo sapiens) (UniProt Q8IYT8); conditions: Compound concentration 1000.0 nM
[18] = biological target: Dual specificity protein kinase CLK2 (Homo sapiens) (UniProt P49760); conditions: Compound concentration 1000.0 nM
[19] = biological target: Peripheral plasma membrane protein CASK (Homo sapiens) (UniProt O14936); conditions: Compound concentration 1000.0 nM
[20] = biological target: Myosin light chain kinase, smooth muscle (Homo sapiens) (UniProt Q15746); conditions: Compound concentration 1000.0 nM
[21] = tested on: Tyrosine-protein kinase ABL1 (Homo sapiens), P00519 [F317L]; conditions: Compound concentration 1000.0 nM
[22] = biological target: Serine/threonine-protein kinase TAO2 (Homo sapiens) (UniProt Q9UL54); conditions: Compound concentration 1000.0 nM
[23] = biological target: Interleukin-1 receptor-associated kinase 1 (Homo sapiens) (UniProt P51617); conditions: Compound concentration 1000.0 nM
Sequence of Interleukin-1 receptor-associated kinase 1 (Homo sapiens) (P51617 whole entry, looked up): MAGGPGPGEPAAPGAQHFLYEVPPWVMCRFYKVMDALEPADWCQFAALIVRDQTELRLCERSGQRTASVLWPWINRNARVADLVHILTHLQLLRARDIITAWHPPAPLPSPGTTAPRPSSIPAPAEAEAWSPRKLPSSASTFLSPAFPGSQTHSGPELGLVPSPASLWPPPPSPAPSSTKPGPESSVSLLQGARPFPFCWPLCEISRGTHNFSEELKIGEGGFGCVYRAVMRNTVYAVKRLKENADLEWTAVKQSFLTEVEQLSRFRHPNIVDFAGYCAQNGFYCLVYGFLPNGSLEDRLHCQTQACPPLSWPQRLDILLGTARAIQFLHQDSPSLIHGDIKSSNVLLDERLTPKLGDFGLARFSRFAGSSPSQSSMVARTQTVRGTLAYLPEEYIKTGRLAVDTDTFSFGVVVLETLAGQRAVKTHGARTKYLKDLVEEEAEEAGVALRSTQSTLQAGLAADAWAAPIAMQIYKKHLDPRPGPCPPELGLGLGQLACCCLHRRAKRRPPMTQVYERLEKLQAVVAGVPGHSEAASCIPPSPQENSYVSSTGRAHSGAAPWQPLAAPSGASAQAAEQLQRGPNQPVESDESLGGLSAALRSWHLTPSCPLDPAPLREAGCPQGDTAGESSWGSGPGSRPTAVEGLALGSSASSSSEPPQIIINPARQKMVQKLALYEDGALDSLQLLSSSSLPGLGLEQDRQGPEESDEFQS

[24] = biological target: Serine/threonine-protein kinase 32A (Homo sapiens) (UniProt Q8WU08); conditions: Compound concentration 1000.0 nM
[25] = biological target: Death-associated protein kinase 1 (Homo sapiens) (UniProt P53355); conditions: Compound concentration 1000.0 nM
[26] = biological target: Calcium/calmodulin-dependent protein kinase type 1G (Homo sapiens) (UniProt Q96NX5); conditions: Compound concentration 1000.0 nM
[27] = biological target: Alpha-2C adrenergic receptor (Homo sapiens) (UniProt P18825); conditions: Compound concentration 10.0 uM
Sequence of Alpha-2C adrenergic receptor (Homo sapiens) (P18825 whole entry): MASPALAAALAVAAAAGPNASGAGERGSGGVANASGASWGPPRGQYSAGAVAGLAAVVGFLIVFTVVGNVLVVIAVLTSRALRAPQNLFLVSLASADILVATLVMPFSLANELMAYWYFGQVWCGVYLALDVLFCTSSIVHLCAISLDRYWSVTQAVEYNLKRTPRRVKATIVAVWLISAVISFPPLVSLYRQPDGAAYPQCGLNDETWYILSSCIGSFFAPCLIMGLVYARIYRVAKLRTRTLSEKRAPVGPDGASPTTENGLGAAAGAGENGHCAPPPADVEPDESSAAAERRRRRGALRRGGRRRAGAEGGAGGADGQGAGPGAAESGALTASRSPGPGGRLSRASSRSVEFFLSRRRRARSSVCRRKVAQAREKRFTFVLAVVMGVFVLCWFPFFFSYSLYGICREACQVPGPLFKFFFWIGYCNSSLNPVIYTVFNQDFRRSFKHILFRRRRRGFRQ

[28] = biological target: SRSF protein kinase 1 (Homo sapiens) (UniProt Q96SB4); conditions: Compound concentration 1000.0 nM
[29] = biological target: Non-receptor tyrosine-protein kinase TYK2 (Homo sapiens) (UniProt P29597); conditions: Compound concentration 1000.0 nM
[30] = biological target: Mitogen-activated protein kinase 4 (Homo sapiens) (UniProt P31152); conditions: Compound concentration 1000.0 nM
[31] = biological target: Cyclin-dependent kinase 4 (Homo sapiens) (UniProt P11802); conditions: Compound concentration 1000.0 nM
[32] = biological target: Tyrosine-protein kinase Blk (Homo sapiens) (UniProt P51451); conditions: Compound concentration 1000.0 nM
[33] = tested on: Tyrosine-protein kinase ABL1 (Homo sapiens), P00519 [H396P]; conditions: Compound concentration 1000.0 nM
[34] = biological target: Ribosomal protein S6 kinase alpha-3 (Homo sapiens) (UniProt P51812); conditions: Compound concentration 1000.0 nM
[35] = tested on: Phosphatidylinositol 4,5-bisphosphate 3-kinase catalytic subunit alpha isoform (Homo sapiens), P42336 [H1047L]; conditions: Compound concentration 1000.0 nM
[36] = biological target: Calcium/calmodulin-dependent protein kinase type II subunit gamma (Homo sapiens) (UniProt Q13555); conditions: Compound concentration 1000.0 nM
[37] = biological target: Phosphatidylinositol 4,5-bisphosphate 3-kinase catalytic subunit gamma isoform (Homo sapiens) (UniProt P48736); conditions: Compound concentration 1000.0 nM
[38] = biological target: Citron Rho-interacting kinase (Homo sapiens) (UniProt O14578); conditions: Compound concentration 1000.0 nM
[39] = biological target: Mu-type opioid receptor (Homo sapiens) (UniProt P35372); conditions: Compound concentration 10.0 uM
[40] = biological target: Serine/threonine-protein kinase STK11 (Homo sapiens) (UniProt Q15831); conditions: Compound concentration 1000.0 nM
[41] = biological target: Leucine-rich repeat serine/threonine-protein kinase 2 (Homo sapiens) (UniProt Q5S007); conditions: Compound concentration 1000.0 nM
[42] = biological target: Dual specificity protein kinase CLK1 (Homo sapiens) (UniProt P49759); conditions: Compound concentration 1000.0 nM
[43] = biological target: Serine/threonine-protein kinase NLK (Homo sapiens) (UniProt Q9UBE8); conditions: Compound concentration 1000.0 nM
[44] = biological target: Serine/threonine-protein kinase 16 (Homo sapiens) (UniProt O75716); conditions: Compound concentration 1000.0 nM

Sequence of 1-phosphatidylinositol 3-phosphate 5-kinase (Homo sapiens) (Q9Y2I7 whole entry): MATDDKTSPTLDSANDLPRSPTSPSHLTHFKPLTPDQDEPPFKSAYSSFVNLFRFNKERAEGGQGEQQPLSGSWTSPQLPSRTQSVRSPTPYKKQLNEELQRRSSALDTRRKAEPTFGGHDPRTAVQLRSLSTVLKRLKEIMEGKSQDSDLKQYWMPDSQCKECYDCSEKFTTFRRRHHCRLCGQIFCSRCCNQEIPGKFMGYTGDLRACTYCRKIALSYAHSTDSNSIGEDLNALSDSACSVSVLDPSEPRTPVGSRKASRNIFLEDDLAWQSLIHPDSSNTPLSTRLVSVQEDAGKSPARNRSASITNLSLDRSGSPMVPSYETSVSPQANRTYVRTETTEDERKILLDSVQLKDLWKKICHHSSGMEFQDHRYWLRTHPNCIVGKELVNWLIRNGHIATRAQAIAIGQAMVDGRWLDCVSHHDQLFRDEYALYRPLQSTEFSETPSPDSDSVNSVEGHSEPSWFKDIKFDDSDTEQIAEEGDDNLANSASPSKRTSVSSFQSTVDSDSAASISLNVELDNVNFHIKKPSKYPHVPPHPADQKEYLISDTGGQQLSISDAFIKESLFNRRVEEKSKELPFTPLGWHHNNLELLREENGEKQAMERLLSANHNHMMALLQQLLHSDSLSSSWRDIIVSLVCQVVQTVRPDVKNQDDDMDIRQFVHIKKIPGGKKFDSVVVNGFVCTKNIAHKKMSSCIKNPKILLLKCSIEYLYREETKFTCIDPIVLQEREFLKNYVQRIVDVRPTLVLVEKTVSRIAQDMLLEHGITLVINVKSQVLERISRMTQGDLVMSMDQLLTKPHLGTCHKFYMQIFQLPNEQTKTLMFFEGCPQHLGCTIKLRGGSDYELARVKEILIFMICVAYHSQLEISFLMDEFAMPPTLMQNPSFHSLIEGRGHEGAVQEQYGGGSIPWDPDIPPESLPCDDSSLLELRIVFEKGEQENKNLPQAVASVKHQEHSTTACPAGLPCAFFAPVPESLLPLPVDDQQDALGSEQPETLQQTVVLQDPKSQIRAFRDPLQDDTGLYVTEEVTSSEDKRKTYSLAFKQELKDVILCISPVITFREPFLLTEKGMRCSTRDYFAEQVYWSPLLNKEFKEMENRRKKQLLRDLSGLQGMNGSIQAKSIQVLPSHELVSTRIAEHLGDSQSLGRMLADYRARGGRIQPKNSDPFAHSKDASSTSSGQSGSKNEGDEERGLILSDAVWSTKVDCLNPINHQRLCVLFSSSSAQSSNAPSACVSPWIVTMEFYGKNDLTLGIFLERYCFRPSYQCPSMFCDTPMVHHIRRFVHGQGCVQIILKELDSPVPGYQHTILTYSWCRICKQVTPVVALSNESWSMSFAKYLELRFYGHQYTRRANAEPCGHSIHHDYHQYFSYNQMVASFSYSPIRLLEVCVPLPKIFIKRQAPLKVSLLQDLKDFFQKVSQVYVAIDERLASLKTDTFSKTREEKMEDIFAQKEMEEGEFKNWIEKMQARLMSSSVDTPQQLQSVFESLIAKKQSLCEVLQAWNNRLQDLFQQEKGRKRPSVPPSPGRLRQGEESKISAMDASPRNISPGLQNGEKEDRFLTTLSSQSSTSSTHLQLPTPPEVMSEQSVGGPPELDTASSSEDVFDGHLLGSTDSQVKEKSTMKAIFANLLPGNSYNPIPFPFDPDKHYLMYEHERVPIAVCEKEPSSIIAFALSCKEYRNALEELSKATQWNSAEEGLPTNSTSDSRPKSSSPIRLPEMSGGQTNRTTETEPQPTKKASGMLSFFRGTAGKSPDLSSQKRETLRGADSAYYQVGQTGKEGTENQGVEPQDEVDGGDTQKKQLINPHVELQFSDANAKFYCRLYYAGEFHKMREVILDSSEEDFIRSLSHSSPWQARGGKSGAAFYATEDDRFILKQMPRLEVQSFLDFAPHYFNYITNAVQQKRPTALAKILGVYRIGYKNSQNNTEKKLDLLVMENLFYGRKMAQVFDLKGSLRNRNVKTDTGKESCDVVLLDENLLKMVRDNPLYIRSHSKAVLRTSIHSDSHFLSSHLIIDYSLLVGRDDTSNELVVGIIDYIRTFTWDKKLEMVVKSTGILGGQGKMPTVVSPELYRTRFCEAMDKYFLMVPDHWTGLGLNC
Sequence of Serine/threonine-protein kinase MAK (Homo sapiens) (P20794 whole entry): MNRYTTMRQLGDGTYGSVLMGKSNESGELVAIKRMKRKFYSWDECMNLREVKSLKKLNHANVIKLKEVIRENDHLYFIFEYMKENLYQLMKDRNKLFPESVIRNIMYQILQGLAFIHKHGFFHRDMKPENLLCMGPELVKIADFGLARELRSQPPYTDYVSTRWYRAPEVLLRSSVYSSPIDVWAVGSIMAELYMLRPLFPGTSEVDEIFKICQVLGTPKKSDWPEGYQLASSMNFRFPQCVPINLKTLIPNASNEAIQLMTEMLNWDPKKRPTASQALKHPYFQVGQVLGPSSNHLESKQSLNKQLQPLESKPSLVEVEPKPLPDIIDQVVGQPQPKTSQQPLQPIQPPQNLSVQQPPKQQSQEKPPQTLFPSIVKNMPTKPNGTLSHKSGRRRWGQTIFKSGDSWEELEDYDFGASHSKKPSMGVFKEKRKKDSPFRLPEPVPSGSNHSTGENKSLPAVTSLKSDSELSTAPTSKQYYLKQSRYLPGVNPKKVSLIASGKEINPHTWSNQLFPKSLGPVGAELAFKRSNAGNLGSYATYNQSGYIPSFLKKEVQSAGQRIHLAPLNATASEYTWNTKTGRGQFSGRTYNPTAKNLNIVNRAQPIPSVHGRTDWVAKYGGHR

## FC(F)(F)c1ccc2c(c1)nc(-c1cccnc1)n2C1CC1 [MSD-CYP11B2-Negative-control]
[1]
  residual activity: 100%
[2]
  residual activity: 99%
[3]
  residual activity: 92%
[4]
  Ki: 1070 nM
[5]
  residual activity: 100%
[6]
  residual activity: 100%
[7]
  residual activity: 69%
[8]
  residual activity: 100%
[9]
  residual activity: 90%
[10]
  residual activity: 100%
[11]
  residual activity: 100%
[12]
  residual activity: 100%
[13]
  residual activity: 100%
[14]
  residual activity: 100%
[15]
  residual activity: 83%
[16]
  residual activity: 100%
[17]
  residual activity: 100%
[18]
  residual activity: 100%
[19]
  residual activity: 100%
[20]
  residual activity: 100%
[21]
  residual activity: 100%
[22]
  residual activity: 99%
[23]
  residual activity: 100%
[24]
  residual activity: 89%
[25]
  residual activity: 100%
[26]
  residual activity: 100%
[27]
  inhibition: 13.3%
[28]
  residual activity: 80%
[29]
  residual activity: 100%
[30]
  residual activity: 100%
[31]
  residual activity: 100%
[32]
  residual activity: 96%
[33]
  residual activity: 100%
[34]
  residual activity: 71%
[35]
  residual activity: 100%
[36]
  residual activity: 100%
[37]
  residual activity: 92%
[38]
  residual activity: 100%
[39]
  inhibition: -2.5%
[40]
  residual activity: 100%
[41]
  residual activity: 100%
[42]
  residual activity: 100%
[43]
  residual activity: 100%
[44]
  residual activity: 100%

## CC(C)(O)c1cncc(-c2nc3ccc(F)cc3n2C2CC2)c1 [MSD-CYP11B2]
[1]
  residual activity: 100%
[2]
  residual activity: 99%
[3]
  residual activity: 71%
[4]
  Ki: 1540 nM
[5]
  residual activity: 100%
[6]
  residual activity: 100%
[7]
  residual activity: 89%
[8]
  residual activity: 100%
[9]
  residual activity: 100%
[10]
  residual activity: 100%
[11]
  residual activity: 95%
[12]
  residual activity: 100%
[13]
  residual activity: 100%
[14]
  residual activity: 100%
[15]
  residual activity: 96%
[16]
  residual activity: 100%
[17]
  residual activity: 100%
[18]
  residual activity: 100%
[19]
  residual activity: 89%
[20]
  residual activity: 80%
[21]
  residual activity: 100%
[22]
  residual activity: 100%
[23]
  residual activity: 100%
[24]
  residual activity: 100%
[25]
  residual activity: 100%
[26]
  residual activity: 100%
[27]
  inhibition: 70.1%
[28]
  residual activity: 100%
[29]
  residual activity: 100%
[30]
  residual activity: 100%
[31]
  residual activity: 100%
[32]
  residual activity: 98%
[33]
  residual activity: 100%
[34]
  residual activity: 69%
[35]
  residual activity: 97%
[36]
  residual activity: 100%
[37]
  residual activity: 77%
[38]
  residual activity: 100%
[39]
  inhibition: 0.18%
[40]
  residual activity: 98%
[41]
  residual activity: 100%
[42]
  residual activity: 94%
[43]
  residual activity: 100%
[44]
  residual activity: 100%
